Literature values, collected in patent US11246867B2, “Pharmaceutical composition comprising pimobendan” (Ceva Sante Animale, priority 2015, dated 2022).

Conditions: pH 5

solubility in water: about 1 mg/liter
Structure (SMILES): COc1ccc(-c2nc3ccc(C4=NNC(=O)CC4C)cc3[nH]2)cc1 (stereo not shown) [pimobendan, 4,5-dihydro-6-[2-(4-methoxyphenyl)-1H-benzimidazol-5-yl]-5-methyl-3(2H)-pyridazone]
